The source of these data is patent publication US10590422B2, “Anticancer therapeutic intervention” (PHYZAT BIOPHARMACEUTICALS, LDA., priority 2017, dated 2020).

In data set [1] the test system is human colon cancer HTC-116 cells. The data set is described as follows: Cell proliferation assay (calcein-AM) in human colon cancer HTC-116 cells. Format: cell-based. The conditions noted are these: for Decrease in cell proliferation greater the higher the concentration of Injectin in the siRNA:Injectin complexes: Injectin 0.037% to 0.15%; for cell proliferation / proliferation: treatment 6 h; for proliferation: at 72 h, 0.17% Lipofectamine 2000 or 0.1% Injectin, FIGS. 19B and 20B. The method in brief: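 HCT-116 cells in McCoy's 5A with 10% FBS, plated 24 h, then exposed to test items at 37° C, 5% CO2; after serum and antibiotic restoration, grown a further 72 h. Viable cells stained with 2 μM calcein-AM for 30 min, fluorescence read at 485/530 nm; percent cell number = sample/control × 100.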

For data set [2], the system named is human colon cancer HTC-116 cells xenograft tumour. Briefly: Xenograft tumour model, relative tumour volume, intratumoral injections. Format: in vivo, NMRI nu/nu mice. Particulars: immune deficient mice, subcutaneous HTC-116; 10 μg intratumoral (50 μL) every other day; versus vehicle (Injectin); FIG. 23. As to the method:
Human colon cancer HTC-116 cells grown in tissue culture and 10^7 cells per mouse were injected into the hind flank of female NMRI nu/nu mice. Once tumours have developed and tumour volumes reached randomisation criteria, therapy will commence by every other day […], intra-tumoral injections. A vehicle treated group was included in the study as control. Female immunodeficient NMRI nu/nu mice from Charles River were used. The animals were delivered at the age of 4-6 weeks and are used for implantation after at least 1 week of quarantine. […] During the experiments, animals were monitored at least daily. […]
The tumour volume was determined by a two-dimensional measurement with callipers on the day of randomization (Day 0) and then twice weekly. Tumour volumes were calculated according to the following equation: Tumour Vol [mm^3]=a [mm]×b^2 [mm^2]×0.5 […]
The relative volume of an individual tumour on day X (RTVx) was calculated by dividing the absolute volume [mm^3] of the respective tumour on day X (Tx) by the absolute volume of the same tumour on the day of randomization, i. e. on day 0 (T0), multiplied by 100, as shown by the following equation: […]
Group median and range (alternatively geometric mean+/−SEM) of RTVs were calculated, considering only the tumours of animals that were alive on the day in question (for median). […]

[3] abbreviates: 72 h exposure, 0.1% Injectin, FIG. 14.
[4] abbreviates: 72 h exposure, increasing Injectin (0.037% to 0.15%), FIG. 15.

For the substance “58/387/388 (sense CUUCGCCACCUACCUGCUCAATT; antisense UUGAGCAGGUAGGUGGCGAAGTT; siRNA; sugars by position and backbone not given here; further chemistry not fully specified)”, in data set [1] (25 nM, 72 h exposure, Injectin, FIG. 18A), the “proliferation (siRNA-LAT1 alone)” value was “significant decrease”. For the same substance, the “Effect of 5-fluoruracil upon proliferation in combination with the siRNA” value in data set [1] (5-FU 10 μM, siRNA 25 nM, 72 h, 0.037% Injectin, FIG. 17A) was “enhanced”; in data set [1] (5-FU 3 and 10 μM, siRNA 5 and 25 nM, concentration dependent, 72 h, 0.25% Lipofectamine 2000, FIG. 16), “significantly enhanced”. Besides, the “Decrease in cell proliferation greater the higher the concentration of Injectin in the siRNA:Injectin complexes” value in data set [1] (72 h, FIG. 15) is recorded as “particularly evident”. Further, in data set [1] (Cisp 3 and 10 μM, siRNA 5 and 25 nM, concentration dependent, 72 h, 0.25% Lipofectamine 2000, FIG. 16), the “Effect of cisplatin upon proliferation in combination with the siRNA” value was “significantly enhanced”. Moreover, the “Effect of oxaliplatin upon proliferation in combination with the siRNA” value in data set [1] (Oxa 1 and 3 μM, siRNA 5 and 25 nM, concentration dependent, 72 h, 0.25% Lipofectamine 2000, FIG. 16) is on record as “significantly enhanced”. The cell proliferation result in data set [1] (setting [3]) and in data set [1] (setting [4]) was “decreased” throughout. Moreover, the proliferation result in data set [1] is “significantly decreased”. Further, the “reduction in relative tumour volume” value in data set [2] is on record as “statistically significant”.
On to “278/403/404 (sense UGCCACGGUCGCCUCUGAGAATT; antisense UUCUCAGAGGCGACCGUGGCATT; siRNA; sugars by position and backbone not given here; further chemistry not fully specified)”, for which, in data set [1] (5-FU 10 μM, 72 h, FIG. 17B), the “Enhancement of effects of 5-fluoruracil compared with SEQ ID NO: 267/397/398” value was “more marked”. The “Decrease in cell proliferation greater the higher the concentration of Injectin in the siRNA:Injectin complexes” value in data set [1] (72 h, FIG. 15) was “particularly evident”. For the same substance, in data set [1] (72 h, siRNA-ASCT2 at non-efficacious conditions (0.037% Injectin), FIG. 18), the “Effect of siRNA-LAT1 SEQ ID NO: 58/387/388 upon proliferation in combination with the siRNA-ASCT2” value is “enhanced”. In addition, the cell proliferation entry in data set [1] (setting [3]) and in data set [1] (setting [4]) was “decreased” each time. The proliferation entry in data set [1] is “significantly decreased”. In data set [2], the “reduction in relative tumour volume” value is listed as “statistically significant”.
